Source: PMC9729869, “Functional verification and characterization of a type-III geranylgeranyl diphosphate synthase gene from Sporobolomyces pararoseus NGR” (Frontiers in Microbiology, 2022)

Biological target: T1, CrtE (geranylgeranyl diphosphate synthase, GGPPS) (Sporobolomyces pararoseus, UniProt A0A2P1HA31)
T1 construct: dimer only in the predicted model
Test: TLC of dephosphorylated product (GGOH)
Format: biochemical

T1 sequence (A0A2P1HA31 1-377): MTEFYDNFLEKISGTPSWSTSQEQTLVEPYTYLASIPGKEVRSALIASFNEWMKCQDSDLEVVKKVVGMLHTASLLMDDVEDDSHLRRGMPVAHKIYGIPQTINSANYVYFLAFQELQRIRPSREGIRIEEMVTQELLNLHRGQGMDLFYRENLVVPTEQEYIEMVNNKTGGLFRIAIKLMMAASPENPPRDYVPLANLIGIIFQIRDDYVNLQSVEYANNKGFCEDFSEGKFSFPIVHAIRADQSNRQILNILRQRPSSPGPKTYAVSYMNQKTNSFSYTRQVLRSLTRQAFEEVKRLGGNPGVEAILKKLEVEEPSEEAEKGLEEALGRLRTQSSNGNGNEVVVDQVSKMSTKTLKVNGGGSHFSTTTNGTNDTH

Structure (SMILES): C=C(C)CCOP(=O)(O)OP(=O)(O)O [IPP, isopentenyl diphosphate]
- TLC of dephosphorylated product (GGOH) (50 uM IPP with 50 uM allylic co-substrate (FPP, GPP or DMAPP), else same): using three different allylic substrates and IPP as substrates for the reaction

Structure (SMILES): CC(C)=CCC/C(C)=C/CC/C(C)=C/COP(=O)(O)OP(=O)(O)O [FPP, farnesyl diphosphate]
- TLC of dephosphorylated product (GGOH) (50 uM FPP, 50 uM IPP, 10 ng CrtE in 200 uL, 100 mM HEPES with 5 mM MgCl2 (enzyme exchange buffer) pH 7.5, 28 C, 2 h, Trx/His/S tags kept): largest number of GGPP was produced using FPP
